From patent US8541434B2, “Ethynyl-substituted pyridine and pyrimidine derivatives and their use in treating viral infections” (Merck Sharp & Dohme Corp., priority 2008, dated 2013)

These compounds were tested on HCV replicon cells (assay: Cell-based HCV replicon assay (replicon RNA level by real time PCR, Taqman)). Conditions: Hepatitis C virus, 72 h, harvested on day 3, EC90 = concentration necessary to achieve ΔCT=3.2 over the baseline, read-out: EC90 Range.
Procedure: Assays Cell-Based HCV Replicon Assay
To measure cell-based anti-HCV activity of the compounds of the present invention, replicon cells were seeded at 5000 cells/well in 96-well collagen I-coated Nunc plates in the presence of the compound of the invention. […] The final concentration of DMSO was 0.5%, fetal bovine serum was 10%, in the assay media. Cells were harvested on day 3 by the addition of 1× cell lysis buffer (Ambion cat #8721). The replicon RNA level was measured using real time PCR (Taqman assay). The amplicon was located in 5B. […] GAPDH RNA was used as endogenous control and was amplified in the same reaction as NS5B (multiplex PCR) using primers and VIC-labeled probe recommended by the manufacturer (PE Applied Biosystem). The real-time RT-PCR reactions were run on ABI PRISM 7900HT Sequence Detection System using the following program: 48° C. for 30 min, 95° C. for 10 min, 40 cycles of 95° C. for 15 sec, 60° C. for 1 min. The ACT values (CT5B-CTGAPDH) were plotted against the concentration of test compound and fitted to the sigmoid dose-response model using GraphPad PRISM software. EC50 was defined as the concentration of inhibitor necessary to achieve ΔCT=1 over the projected baseline; EC90 the concentration necessary to achieve ΔCT=3.2 over the baseline. Alternatively, to quantitate the absolute amount of replicon RNA, a standard curve was established by including serially diluted T7 transcripts of replicon RNA in the Taqman assay. All Taqman reagents were from PE Applied Biosystems. Such an assay procedure was described in detail in e.g. Malcolm et al., Antimicrobial Agents and Chemotherapy 50: 1013-1020 (2006).

`CCOc1ccc(C#Cc2c(C)nc(NCCF)nc2N[C@@H]2C[C@H](CO)[C@@H](O)[C@H]2O)cn1` [Compound 89] and `CCCNc1nc(C)c(C#Cc2ccc(OCC)nc2)c(N[C@@H]2C[C@H](CO)[C@@H](O)[C@H]2O)n1` [Compound 87] cannot be ordered by EC90: 500 to 5000 nM for the first, ≤ 500 nM for the second.

`CNc1nc(Cl)c(C#Cc2ccc(SC)nc2C)c(N[C@@H]2C[C@H](CO)[C@@H](O)[C@H]2O)n1` [Compound 66] and `CSc1ccc(C#Cc2c(Cl)nc(N)nc2N[C@@H]2C[C@H](CO)[C@@H](O)[C@H]2O)c(C)n1` [Compound 64] cannot be ordered by EC90: ≤ 500 nM for the first, ≤ 500 nM for the second.

`COCCNc1nc(C)c(C#Cc2ccc(OC)nc2)c(N[C@@H]2C[C@H](CO)[C@@H](O)[C@H]2O)n1` [Compound 77] and `CCOc1ccc(C#Cc2c(C)nc(NCCOC)nc2N[C@@H]2C[C@H](CO)[C@@H](O)[C@H]2O)cn1` [Compound 81] cannot be ordered by EC90: ≤ 500 nM for the first, ≤ 500 nM for the second.

`CCOc1ccc(C#Cc2c(Cl)nc(NCCOC)nc2N[C@@H]2C[C@H](CO)[C@@H](O)[C@H]2O)c(C)n1` [Compound 71] and `COCCNc1nc(Cl)c(C#Cc2ccc(OC)nc2C)c(N[C@@H]2C[C@H](CO)[C@@H](O)[C@H]2O)n1` [Compound 67] cannot be ordered by EC90: ≤ 500 nM for the first, ≤ 500 nM for the second.

`COc1ccc(C#Cc2c(C)nc(NCC3CC3)nc2N[C@@H]2C[C@H](CO)[C@@H](O)[C@H]2O)c(OC)n1` [Compound 95] and `COCCNc1nc(C)c(C#Cc2ccc(OC)nc2OC)c(N[C@@H]2C[C@H](CO)[C@@H](O)[C@H]2O)n1` [Compound 94] cannot be ordered by EC90: ≤ 500 nM for the first, ≤ 500 nM for the second.

`OC[C@H]1C[C@@H](Nc2nc(NCC(F)(F)F)nc(Cl)c2C#Cc2ccc(-c3ccccn3)s2)[C@H](O)[C@@H]1O` [Compound 97] and `Nc1nc(Cl)c(C#Cc2ccc(-c3ccccn3)s2)c(N[C@@H]2C[C@H](CO)[C@@H](O)[C@H]2O)n1` [Compound 34] cannot be ordered by EC90: ≤ 500 nM for the first, ≤ 500 nM for the second.

`Cc1nc(NCC2CC2)nc(N[C@@H]2C[C@H](CO)[C@@H](O)[C@H]2O)c1C#Cc1ccc(-c2ccccn2)s1` [Compound 104] and `COCCNc1nc(C)c(C#Cc2ccc(-c3ccccn3)s2)c(N[C@@H]2C[C@H](CO)[C@@H](O)[C@H]2O)n1` [Compound 105] fall in the same range of EC90: 500 to 5000 nM for the first, 500 to 5000 nM for the second.

`Cc1nc(OCC(F)(F)F)ccc1C#Cc1c(Cl)nc(NCC(F)(F)F)nc1N[C@@H]1C[C@H](CO)[C@@H](O)[C@H]1O` [Compound 70] and `CCOc1ccc(C#Cc2c(Cl)nc(NCC(F)(F)F)nc2N[C@@H]2C[C@H](CO)[C@@H](O)[C@H]2O)c(C)n1` [Compound 72] cannot be ordered by EC90: 500 to 5000 nM for the first, ≤ 500 nM for the second.

`CCOc1ccc(C#Cc2c(C)nc(NCC(F)(F)F)nc2N[C@@H]2C[C@H](CO)[C@@H](O)[C@H]2O)cn1` [Compound 86] and `CCOc1ccc(C#Cc2c(Cl)nc(NCC(F)(F)F)nc2N[C@@H]2C[C@H](CO)[C@@H](O)[C@H]2O)cn1` [Compound 74] cannot be ordered by EC90: ≤ 500 nM for the first, ≤ 500 nM for the second.

`CCOc1ccc(C#Cc2c(C)nc(NCC(C)(C)C)nc2N[C@@H]2C[C@H](CO)[C@@H](O)[C@H]2O)cn1` [Compound 85] and `CCOc1ccc(C#Cc2c(C)nc(N)nc2N[C@@H]2C[C@H](CO)[C@@H](O)[C@H]2O)cn1` [Compound 1] cannot be ordered by EC90: ≤ 500 nM for the first, ≤ 500 nM for the second.

`Nc1nc(Cl)c(C#Cc2ncc(CO)s2)c(N[C@@H]2C[C@H](CO)[C@@H](O)[C@H]2O)n1` [Compound 47] and `Cc1csc(C#Cc2c(Cl)nc(N)nc2N[C@@H]2C[C@H](CO)[C@@H](O)[C@H]2O)n1` [Compound 46] cannot be ordered by EC90: > 5000 nM for the first, > 5000 nM for the second.

`COC(=O)c1nc(N)sc1C#Cc1c(Cl)nc(N)nc1N[C@@H]1C[C@H](CO)[C@@H](O)[C@H]1O` [Compound 32] and `CNC(=O)c1ncccc1C#Cc1c(Cl)nc(N)nc1N[C@@H]1C[C@H](CO)[C@@H](O)[C@H]1O` [Compound 57] cannot be ordered by EC90: ≤ 500 nM for the first, 500 to 5000 nM for the second.

`CCOc1ccc(C#Cc2c(Cl)nc(NCCOC)nc2N[C@@H]2C[C@H](CO)[C@@H](O)[C@H]2O)cn1` [Compound 73] and `COCCNc1nc(Cl)c(C#Cc2ccc(OC)nc2)c(N[C@@H]2C[C@H](CO)[C@@H](O)[C@H]2O)n1` [Compound 75] cannot be ordered by EC90: ≤ 500 nM for the first, ≤ 500 nM for the second.

First: Nc1nc(Cl)c(C#Cc2ccc(Cl)nc2)c(N[C@@H]2C[C@H](CO)[C@@H](O)[C@H]2O)n1 [Compound 9]
Second: Cc1ccc(C#Cc2c(Cl)nc(N)nc2N[C@@H]2C[C@H](CO)[C@@H](O)[C@H]2O)cn1 [Compound 5]
The EC90 of the first is higher: > 5000 nM for the first, 500 to 5000 nM for the second.

First: Nc1nc(Cl)c(C#Cc2cncs2)c(N[C@@H]2C[C@H](CO)[C@@H](O)[C@H]2O)n1 [Compound 37]
Second: Cn1cncc1C#Cc1c(Cl)nc(N)nc1N[C@@H]1C[C@H](CO)[C@@H](O)[C@H]1O [Compound 30]
The EC90 of the first is lower: 500 to 5000 nM for the first, > 5000 nM for the second.

`Nc1nc(Cl)c(C#Cc2cncnc2)c(N[C@@H]2C[C@H](CO)[C@@H](O)[C@H]2O)n1` [Compound 45] and `COc1ccc(C#Cc2c(Cl)nc(N)nc2N[C@@H]2C[C@H](CO)[C@@H](O)[C@H]2O)cn1` [Compound 20, (1R,2S,3R,5R)-3-[[2-Amino-6-chloro-5-[2-(2-methoxypyridin-5-yl)ethynyl]-4-pyrimidinyl]amino]-5-(hydroxymethyl)-1,2-cyclopentanediol] cannot be ordered by EC90: 500 to 5000 nM for the first, ≤ 500 nM for the second.

`CSCCNc1nc(C)c(C#Cc2ccc(-c3ccccn3)s2)c(N[C@@H]2C[C@H](CO)[C@@H](O)[C@H]2O)n1` [Compound 96] and `Cc1nc(-c2ccc(C#Cc3c(Cl)nc(N)nc3N[C@@H]3C[C@H](CO)[C@@H](O)[C@H]3O)s2)cs1` [Compound 39] cannot be ordered by EC90: ≤ 500 nM for the first, 500 to 5000 nM for the second.

`COC[C@H]1C[C@@H](Nc2nc(N)nc(Cl)c2C#Cc2ccsc2)[C@H](O)[C@@H]1O` [Compound 61] and `Cc1ccsc1C#Cc1c(Cl)nc(N)nc1N[C@@H]1C[C@H](CO)[C@@H](O)[C@H]1O` [Compound 7] fall in the same range of EC90: 500 to 5000 nM for the first, 500 to 5000 nM for the second.

`Cc1ccc(C#Cc2c(Cl)nc(N)nc2N[C@@H]2C[C@H](CO)[C@@H](O)[C@H]2O)c(C)n1` [Compound 16] and `CCc1nc(C)ccc1C#Cc1c(Cl)nc(N)nc1N[C@@H]1C[C@H](CO)[C@@H](O)[C@H]1O` [Compound 17] cannot be ordered by EC90: ≤ 500 nM for the first, 500 to 5000 nM for the second.

`CCOc1ccc(C#Cc2c(Cl)nc(N)nc2N[C@@H]2C[C@H](CO)[C@@H](O)[C@H]2O)cn1` [Compound 21] and `CCCc1ccc(C#Cc2c(Cl)nc(N)nc2N[C@@H]2C[C@H](CO)[C@@H](O)[C@H]2O)cn1` [Compound 79] cannot be ordered by EC90: ≤ 500 nM for the first, ≤ 500 nM for the second.

`Cc1nc(-c2ccccc2)c(C#Cc2c(Cl)nc(NCC(F)(F)F)nc2N[C@@H]2C[C@H](CO)[C@@H](O)[C@H]2O)s1` [Compound 101] and `COc1ccc(C#Cc2c(Cl)nc(NCC(F)(F)F)nc2N[C@@H]2C[C@H](CO)[C@@H](O)[C@H]2O)c(C)n1` [Compound 68] cannot be ordered by EC90: 500 to 5000 nM for the first, ≤ 500 nM for the second.

`COCCNc1nc(Cl)c(C#Cc2ccc(OCC(F)(F)F)nc2C)c(N[C@@H]2C[C@H](CO)[C@@H](O)[C@H]2O)n1` [Compound 69] and `COCCNc1nc(C)c(C#Cc2ccc(OC)nc2C)c(N[C@@H]2C[C@H](CO)[C@@H](O)[C@H]2O)n1` [Compound 82] cannot be ordered by EC90: 500 to 5000 nM for the first, ≤ 500 nM for the second.

`CNc1nc(Cl)c(C#Cc2ccc(OC)nc2)c(N[C@@H]2C[C@H](CO)[C@@H](O)[C@H]2O)n1` [Compound 19] and `COc1ccc(C#Cc2c(Cl)nc(NCC(F)(F)F)nc2N[C@@H]2C[C@H](CO)[C@@H](O)[C@H]2O)cn1` [Compound 76] cannot be ordered by EC90: ≤ 500 nM for the first, ≤ 500 nM for the second.

`COc1ccc(C#Cc2c(Cl)nc(N)nc2N[C@@H]2C[C@H](CO)[C@@H](O)[C@H]2O)c(OC)n1` [Compound 22] and `CNc1nc(Cl)c(C#Cc2ccc(OC)nc2C)c(N[C@@H]2C[C@H](CO)[C@@H](O)[C@H]2O)n1` [Compound 65] cannot be ordered by EC90: ≤ 500 nM for the first, ≤ 500 nM for the second.

`COc1ccc(C#Cc2c(C)nc(NCC3CC3)nc2N[C@@H]2C[C@H](CO)[C@@H](O)[C@H]2O)cn1` [Compound 92] and `COc1ccc(C#Cc2c(C)nc(NCc3c(OC)cccc3OC)nc2N[C@@H]2C[C@H](CO)[C@@H](O)[C@H]2O)cn1` [Compound 93] cannot be ordered by EC90: ≤ 500 nM for the first, ≤ 500 nM for the second.

`CNc1nc(Cl)c(C#Cc2ccccc2C(=O)OC(C)C)c(N[C@@H]2C[C@H](CO)[C@@H](O)[C@H]2O)n1` [Compound 50] and `COC(=O)c1ncccc1C#Cc1c(Cl)nc(N(C)C)nc1N[C@@H]1C[C@H](CO)[C@@H](O)[C@H]1O` [Compound 62] fall in the same range of EC90: 500 to 5000 nM for the first, 500 to 5000 nM for the second.

`Cc1nc(-c2cccs2)ccc1C#Cc1c(Cl)nc(N)nc1N[C@@H]1C[C@H](CO)[C@@H](O)[C@H]1O` [Compound 18] and `Cc1nc(-c2nccs2)ccc1C#Cc1c(Cl)nc(N)nc1N[C@@H]1C[C@H](CO)[C@@H](O)[C@H]1O` [Compound 63] cannot be ordered by EC90: ≤ 500 nM for the first, ≤ 500 nM for the second.

`Nc1nc(Cl)c(C#Cc2ccc(C(=O)C(F)(F)F)s2)c(N[C@@H]2C[C@H](CO)[C@@H](O)[C@H]2O)n1` [Compound 40] and `Nc1nc(Cl)c(C#Cc2ccc(C3CCCCN3)s2)c(N[C@@H]2C[C@H](CO)[C@@H](O)[C@H]2O)n1` (some centres unmarked) [Compound 31] cannot be ordered by EC90: 500 to 5000 nM for the first, ≤ 500 nM for the second.

`Cc1nc(NCCCO)nc(N[C@@H]2C[C@H](CO)[C@H]3OC(C)(C)O[C@H]32)c1C#Cc1cccs1` [Compound 100] and `CCNC(=O)c1ncccc1C#Cc1c(Cl)nc(N)nc1N[C@@H]1C[C@H](CO)[C@@H](O)[C@H]1O` [Compound 56] fall in the same range of EC90: 500 to 5000 nM for the first, 500 to 5000 nM for the second.

Compound `Nc1nc(Cl)c(C#Cc2ccc(Cl)cc2)c(N[C@@H]2C[C@H](CO)[C@@H](O)[C@H]2O)n1` [Compound 27] has an EC90 of 500 to 5000 nM.
